Measurements from ChEMBL document CHEMBL5523736, “The First Discovery of Marine Polyoxygenated Cembranolides as Potential Agents for the Treatment of Ulcerative Colitis” (J Med Chem, 2024).
pIC50: −log10 of the molar value. Values belong to the compound of their own block, whether it stands above or below them. Activity calls are given as the source filed them. The rule behind the calls is not given here.

Experiments:
[1] = system: RAW264.7; assay: Antiinflammatory activity in mouse RAW264.7 cells assessed as inhibition of LPS-induced NO production incubated for 24 hrs; assay type: functional, cell-based; settings: RAW264.7, 24 h
[2] = system: RAW264.7; assay: Antiinflammatory activity in mouse RAW264.7 cells assessed as inhibition of LPS-induced NO production at 20 uM incubated for 24 hrs relative to control; assay type: functional
[3] = Cytotoxicity against mouse RAW264.7 cells assessed as cell viability at 20 uM incubated for 24 hrs by CCK8 assay relative to control; assay type: toxicity, cell-based; settings: read-out: Activity
[4] = system: RAW264.7; assay: Antiinflammatory activity in LPS-induced mouse RAW264.7 cells assessed as reduction in IL-1beta mRNA expression level at 20 uM by qRT-PCR analysis; assay type: functional, cell-based
[5] = system: RAW264.7; assay: Antiinflammatory activity in LPS-induced mouse RAW264.7 cells assessed as reduction in IL-6 mRNA expression level at 20 uM by qRT-PCR analysis; assay type: functional, cell-based
[6] = system: RAW264.7; assay: Antiinflammatory activity in LPS-induced mouse RAW264.7 cells assessed as reduction in TNF-alpha mRNA expression level at 20 uM by qRT-PCR analysis; assay type: functional, cell-based
[7] = system: RAW264.7; assay: Antiinflammatory activity in LPS-induced mouse RAW264.7 cells assessed as reduction in iNOS mRNA expression level at 20 uM by qRT-PCR analysis; assay type: functional, cell-based
[8] = system: RAW264.7; assay: Antiinflammatory activity in LPS-induced mouse RAW264.7 cells assessed as inhibition of IL-6 production at 20 uM by ELISA; assay type: functional, cell-based
[9] = system: RAW264.7; assay: Antiinflammatory activity in LPS-induced mouse RAW264.7 cells assessed as inhibition of TNF-alpha production at 20 uM by ELISA; assay type: functional, cell-based
[10] = system: RAW264.7; assay: Antiinflammatory activity in LPS-induced mouse RAW264.7 cells assessed as reduction in IL-1beta gene expression by heat map analysis; assay type: functional, cell-based
[11] = system: RAW264.7; assay: Antiinflammatory activity in LPS-induced mouse RAW264.7 cells assessed as reduction in IL-6 gene expression by heat map analysis; assay type: functional, cell-based
[12] = system: RAW264.7; assay: Antiinflammatory activity in LPS-induced mouse RAW264.7 cells assessed as reduction in Cxcl10 gene expression by heat map analysis; assay type: functional, cell-based
[13] = system: RAW264.7; assay: Antiinflammatory activity in LPS-induced mouse RAW264.7 cells assessed as reduction in Ccl7 gene expression by heat map analysis; assay type: functional, cell-based
[14] = system: RAW264.7; assay: Antiinflammatory activity in LPS-induced mouse RAW264.7 cells assessed as reduction in Ccl2 gene expression by heat map analysis; assay type: functional, cell-based
[15] = system: RAW264.7; assay: Inhibition of NF-kappaB transcriptional activity in LPS-induced mouse RAW264.7 cells at 20 uM by luciferase based assay; assay type: cell-based
[16] = target: Transcription factor p65 (Mus musculus) (UniProt Q04207); assay: Inhibition of p65 activation in LPS-induced mouse RAW264.7 cells at 20 uM by Western blot analysis; assay type: cell-based
[17] = system: RAW264.7; assay: Inhibition of ERK phosphorylation in LPS-induced mouse RAW264.7 cells at 20 uM by Western blot analysis; assay type: cell-based
[18] = target: c-Jun N-terminal kinase (Mus musculus) (UniProt Q91Y86+Q9WTU6+Q61831); assay: Inhibition of JNK phosphorylation in LPS-induced mouse RAW264.7 cells at 20 uM by Western blot analysis; assay type: cell-based
[19] = system: RAW264.7; assay: Inhibition of P38 phosphorylation in LPS-induced mouse RAW264.7 cells at 20 uM by Western blot analysis; assay type: cell-based
[20] = system: Mus musculus; assay: Effect on DSS-induced body weight loss in ulcerative colitis male C57BL/6J mouse model at 15 mg/kg, po administered for 8 days; assay type: functional, organism-based; settings: time 8.0 day
[21] = system: Mus musculus; assay: Antiinflammatory activity against DSS-induced ulcerative colitis C57BL/6J mouse model assessed as reduction in DAI score at 15 mg/kg, po administered for 8 days; assay type: functional, organism-based; settings: time 8.0 day
[22] = system: Mus musculus; assay: Antiinflammatory activity against DSS-induced ulcerative colitis C57BL/6J mouse model assessed as reduction in H and E histopathological score at 15 mg/kg, po administered for 8 days by H and E staining based analysis; assay type: functional, organism-based; settings: time 8.0 day
[23] = system: Mus musculus; assay: Antiinflammatory activity against DSS-induced ulcerative colitis C57BL/6J mouse model assessed as reduction in intestinal epithelial destruction in colon at 15 mg/kg, po administered for 8 days by Hand E staining based histopathological analysis; assay type: functional, organism-based; settings: time 8.0 day
[24] = system: Mus musculus; assay: Antiinflammatory activity against DSS-induced ulcerative colitis C57BL/6J mouse model assessed as reduction in inflammatory cell infiltration in colon at 15 mg/kg, po administered for 8 days by Hand E staining based histopathological analysis; assay type: functional, organism-based; settings: time 8.0 day
[25] = system: Mus musculus; assay: Antiinflammatory activity against DSS-induced ulcerative colitis C57BL/6J mouse model assessed as reduction in goblet cell loss in colon at 15 mg/kg, po administered for 8 days by alcian blue staining based analysis; assay type: functional, organism-based; settings: time 8.0 day
[26] = system: Mus musculus; assay: Antiinflammatory activity against DSS-induced ulcerative colitis C57BL/6J mouse model assessed as increase in […] protein level in colon at 15 mg/kg, po administered for 8 days by Western blot analysis; assay type: functional, organism-based; settings: time 8.0 day
[27] = system: Mus musculus; assay: Antiinflammatory activity against DSS-induced ulcerative colitis C57BL/6J mouse model assessed as increase in CLAUDIN-1 protein level in colon at 15 mg/kg, po administered for 8 days by Western blot analysis; assay type: functional, organism-based; settings: time 8.0 day
[28] = system: Mus musculus; assay: Antiinflammatory activity against DSS-induced ulcerative colitis C57BL/6J mouse model assessed as increase in OCCLUDIN protein level in colon at 15 mg/kg, po administered for 8 days by Western blot analysis; assay type: functional, organism-based; settings: time 8.0 day
[29] = system: Mus musculus; assay: Antiinflammatory activity against DSS-induced ulcerative colitis C57BL/6J mouse model assessed as reduction in IL-1beta mRNA expression level in colon at 15 mg/kg, po administered for 8 days by qRT-PCR analysis; assay type: functional, organism-based; settings: time 8.0 day
[30] = system: Mus musculus; assay: Antiinflammatory activity against DSS-induced ulcerative colitis C57BL/6J mouse model assessed as reduction in TNF-alpha mRNA expression level in colon at 15 mg/kg, po administered for 8 days by qRT-PCR analysis; assay type: functional, organism-based; settings: time 8.0 day
[31] = system: Mus musculus; assay: Antiinflammatory activity against DSS-induced ulcerative colitis C57BL/6J mouse model assessed as reduction in iNOS mRNA expression level in colon at 15 mg/kg, po administered for 8 days by qRT-PCR analysis; assay type: functional, organism-based; settings: time 8.0 day
[32] = system: Mus musculus; assay: Antiinflammatory activity against DSS-induced ulcerative colitis C57BL/6J mouse model assessed as reduction in Ccl2 mRNA expression level in colon at 15 mg/kg, po administered for 8 days by qRT-PCR analysis; assay type: functional, organism-based; settings: time 8.0 day
[33] = system: Mus musculus; assay: Effect on DSS-induced body weight loss in ulcerative colitis male C57BL/6J mouse model at 100 mg/kg, po administered for 8 days; assay type: functional, organism-based; settings: time 8.0 day

Chain of Transcription factor p65 (Mus musculus) (Q04207 whole entry): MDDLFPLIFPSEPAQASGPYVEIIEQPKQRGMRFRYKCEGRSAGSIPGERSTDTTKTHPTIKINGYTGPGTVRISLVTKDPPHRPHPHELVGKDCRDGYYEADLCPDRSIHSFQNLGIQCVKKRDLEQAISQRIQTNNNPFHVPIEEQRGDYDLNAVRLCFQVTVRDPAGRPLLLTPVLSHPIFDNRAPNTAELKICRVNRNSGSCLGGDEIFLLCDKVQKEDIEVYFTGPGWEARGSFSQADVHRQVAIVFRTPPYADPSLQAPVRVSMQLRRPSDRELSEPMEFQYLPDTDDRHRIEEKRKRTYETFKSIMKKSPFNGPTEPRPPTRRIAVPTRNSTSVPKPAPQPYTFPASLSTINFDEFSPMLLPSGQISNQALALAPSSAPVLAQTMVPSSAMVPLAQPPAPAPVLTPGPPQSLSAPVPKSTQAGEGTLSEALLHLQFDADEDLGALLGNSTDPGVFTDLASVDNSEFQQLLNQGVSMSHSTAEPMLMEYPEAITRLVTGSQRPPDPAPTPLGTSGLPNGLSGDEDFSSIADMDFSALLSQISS
Chain of c-Jun N-terminal kinase (Mus musculus) (Q61831 whole entry, looked up): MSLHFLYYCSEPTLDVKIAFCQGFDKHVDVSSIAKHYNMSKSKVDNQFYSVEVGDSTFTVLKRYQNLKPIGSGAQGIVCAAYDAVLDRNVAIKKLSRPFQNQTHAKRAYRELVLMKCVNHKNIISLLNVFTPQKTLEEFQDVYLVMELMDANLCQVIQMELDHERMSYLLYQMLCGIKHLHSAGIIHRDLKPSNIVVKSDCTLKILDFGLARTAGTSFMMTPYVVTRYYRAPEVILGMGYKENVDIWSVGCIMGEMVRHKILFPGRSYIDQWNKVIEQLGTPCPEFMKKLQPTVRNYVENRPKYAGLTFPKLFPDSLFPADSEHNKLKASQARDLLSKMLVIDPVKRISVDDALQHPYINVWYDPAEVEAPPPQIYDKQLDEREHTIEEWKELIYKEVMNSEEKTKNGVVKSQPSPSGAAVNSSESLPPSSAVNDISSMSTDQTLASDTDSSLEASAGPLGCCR
Chain of c-Jun N-terminal kinase (Mus musculus) (Q91Y86 whole entry, looked up): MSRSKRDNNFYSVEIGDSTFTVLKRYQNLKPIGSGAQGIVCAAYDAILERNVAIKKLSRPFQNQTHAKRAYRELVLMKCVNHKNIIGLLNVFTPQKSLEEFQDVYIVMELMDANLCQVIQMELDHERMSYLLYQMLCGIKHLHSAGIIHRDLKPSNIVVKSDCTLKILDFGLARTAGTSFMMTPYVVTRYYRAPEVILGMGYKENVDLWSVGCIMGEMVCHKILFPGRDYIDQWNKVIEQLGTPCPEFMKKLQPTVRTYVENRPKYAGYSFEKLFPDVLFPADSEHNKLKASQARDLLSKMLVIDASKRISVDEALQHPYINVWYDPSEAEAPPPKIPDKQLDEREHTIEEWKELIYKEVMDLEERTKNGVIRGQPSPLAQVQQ
Chain of c-Jun N-terminal kinase (Mus musculus) (Q9WTU6 whole entry, looked up): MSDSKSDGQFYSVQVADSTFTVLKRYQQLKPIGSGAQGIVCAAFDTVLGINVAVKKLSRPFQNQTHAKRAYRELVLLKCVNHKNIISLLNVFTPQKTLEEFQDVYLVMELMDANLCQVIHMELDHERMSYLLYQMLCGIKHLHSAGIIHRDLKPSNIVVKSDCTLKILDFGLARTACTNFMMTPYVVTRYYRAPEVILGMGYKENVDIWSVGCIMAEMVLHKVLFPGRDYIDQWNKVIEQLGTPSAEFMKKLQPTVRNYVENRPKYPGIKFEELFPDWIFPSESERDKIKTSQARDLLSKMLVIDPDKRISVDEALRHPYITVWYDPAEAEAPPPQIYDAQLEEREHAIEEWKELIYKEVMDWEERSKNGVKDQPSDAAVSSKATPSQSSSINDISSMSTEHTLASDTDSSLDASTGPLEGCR

pIC50 [1]: 6.05 | inhibition [16]: Active | inhibition [18]: Active
Compound: C=C1C(=O)O[C@]2(C)CC[C@@H]1C[C@@H]1O[C@@]1(C)CC/C=C(\C)CCC2=O
inhibition at 20 µM [2]: 134% | viability at 24 h, 20 µM [3]: 82.7% | Activity [4]: Active | Activity [5]: Active | Activity [6]: Active | Activity [7]: Active | Activity [8]: Active | Activity [9]: Active | Activity [10]: Active | Activity [11]: Active | Activity [12]: Active | Activity [13]: Active | Activity [14]: Active | inhibition [15]: Active | inhibition [17]: Active | inhibition [19]: inactive | Activity [20]: inactive | Activity [21]: Active | Activity [22]: Active | Activity [23]: Active | Activity [24]: Active | Activity [25]: Active | Activity [26]: Active | Activity [27]: Active | Activity [28]: Active | Activity [29]: Active | Activity [30]: Active | Activity [31]: Active | Activity [32]: Active

Compound: Nc1ccc(O)c(C(=O)O)c1
Activity [33]: inactive
